Laboratory results reported in article PMC9490236, “Accurate de novo design of membrane-traversing macrocycles” (Cell, 2022).
Where a SMILES comes first, the peptide text is derived from it. [ ]: non-standard residue; d: D form. NMeF = CN[C@@H](Cc1ccccc1)C(=O)O; dNMeL = CN[C@H](CC(C)C)C(=O)O; NMeA = CN[C@@H](C)C(=O)O; Nle = CCCC[C@H](N)C(=O)O; dNMeA = CN[C@H](C)C(=O)O

conditions: PAMPA

Row | SMILES | PAMPA_Papp_Avg | PAMPA_R1 | PAMPA_R3
1 | CC[C@@H](C)[C@H]1NC(=O)[C@H](CC(C)C)N(C)C(=O)[C@H]2CCCN2C(=O)[C@H](CC(C)C)NC(=O)[C@@H](Cc2ccccc2)N(C)C(=O)[C@H](CC(C)C)N(C)C(=O)[C@@H](C(C)C)NC(=O)[C@H](C)NC(=O)[C@H]2CCCN2C(=O)[C@@H]2CCCN2C1=O (single isomer, unassigned) [Design D10.60.p2, *LEU *DPHE LEU DPRO *LEU DILE PRO DPRO ALA DVAL] | 1.17E-06 | 1.49E-06 | 1.62E-06
2 | CC[C@@H](C)[C@H]1NC(=O)[C@@H](CC(C)C)N(C)C(=O)[C@@H]2CCCN2C(=O)[C@H]([C@@H](C)CC)NC(=O)[C@H]([C@@H](C)CC)N(C)C(=O)[C@@H](CC(C)C)NC(=O)[C@@H](C(C)C)N(C)C(=O)[C@H]2CCCN2C(=O)[C@@H](C(C)C)NC(=O)[C@@H]2CCCN2C(=O)[C@H]([C@@H](C)CC)NC1=O (single isomer, unassigned) [Design D11.23.p1, DVAL DPRO *DVAL DLEU *ILE ILE PRO *DLEU DILE ILE PRO] | 2.70E-06 | 1.22E-06 | 5.23E-06
3 | CC[C@@H](C)[C@H]1NC(=O)[C@@H](CC(C)C)N(C)C(=O)[C@@H]2CCCN2C(=O)[C@H]([C@@H](C)CC)NC(=O)[C@H]([C@@H](C)CC)N(C)C(=O)[C@@H](CC(C)C)NC(=O)[C@@H](C(C)C)N(C)C(=O)[C@H]2CCCN2C(=O)[C@@H](C(C)C)NC(=O)[C@@H]2CCCN2C(=O)[C@H]([C@@H](C)CC)NC1=O (single isomer, unassigned) [Design D11.23.p2, DVAL DPRO *DVAL DLEU *ILE ILE PRO *DLEU DILE ILE PRO] | 9.83E-07 | 1.49E-06 | 4.80E-07
4 | CC[C@H](C)[C@@H]1NC(=O)[C@@H](CC(C)C)NC(=O)[C@H](CC(C)C)NC(=O)[C@H]2CCCN2C(=O)[C@@H]2CCCN2C(=O)[C@H]([C@@H](C)CC)NC(=O)[C@@H](CC(C)C)N(C)C(=O)[C@@H](CC(C)C)N(C)C1=O [Design D8.9, ILE *DLEU *DLEU ILE PRO DPRO LEU DLEU] (cyclo(IP[dP]L[dL]I[dNMeL][dNMeL])) | BQL | BQL | BQL
5 | CC[C@@H](C)[C@H]1NC(=O)[C@H]2CCCN2C(=O)[C@@H]2CCCN2C(=O)[C@H](C(C)C)NC(=O)[C@@H](C(C)C)NC(=O)[C@@H]2CCCN2C(=O)[C@H]2CCCN2C(=O)[C@@H](C)NC1=O [Design D8.11, DALA DPRO PRO DVAL VAL PRO DPRO DILE] (cyclo([dV]VP[dP][dI][dA][dP]P)) | BQL | BQL | BQL
6 | CC[C@H](C)[C@@H]1NC(=O)[C@@H]2CCCN2C(=O)[C@H]2CCCN2C(=O)[C@@H](CC(C)C)NC(=O)[C@@H](CC(C)C)N(C)C(=O)[C@@H]2CCCN2C(=O)[C@H](Cc2ccccc2)N(C)C(=O)[C@@H](Cc2ccc(O)cc2)NC1=O [Design D8.13, PRO ILE DTYR *PHE PRO *DLEU DLEU DPRO] (cyclo(I[dY][NMeF]P[dNMeL][dL][dP]P)) | BQL | BQL | BQL
7 | CC[C@@H](C)[C@H]1NC(=O)[C@@H]2CCCN2C(=O)[C@H]2CCCN2C(=O)[C@@H](CC(C)C)NC(=O)[C@@H](C)N(C)C(=O)[C@H]2CCCN2C(=O)[C@H]2CCCN2C(=O)[C@H](C(C)C)NC1=O [Design D8.24, DPRO PRO DILE VAL DPRO DPRO *DALA DLEU] (cyclo([dI]V[dP][dP][dNMeA][dL][dP]P)) | BQL | BQL | BQL
8 | CCCC[C@@H]1NC(=O)[C@@H]2CCCN2C(=O)[C@@H](C(C)C)NC(=O)[C@@H](C)N(C)C(=O)[C@@H](CC(C)C)NC(=O)[C@@H](CC(C)C)NC(=O)[C@@H]2CCCN2C(=O)[C@H]2CCCN2C1=O [Design D8.29, MET DPRO PRO DLEU DLEU *DALA DVAL PRO] (cyclo([dL][dL][dNMeA][dV]P[Nle][dP]P)) | 3.60E-07 | 3.98E-07 | 3.61E-07
9 | CC[C@H](C)[C@@H]1NC(=O)[C@@H](C)N(C)C(=O)[C@@H](C)N(C)C(=O)[C@H](C(C)C)NC(=O)[C@H]2CCCN2C(=O)[C@@H]2CCCN2C(=O)[C@H](C(C)C)NC(=O)[C@H]2CCCN2C(=O)[C@@H]2CCCN2C1=O [Design D9.12, PRO DPRO VAL PRO DPRO VAL *DALA *DALA ILE] (cyclo(IP[dP]VP[dP]V[dNMeA][dNMeA])) | BQL | BQL | BQL
10 | CC(C)C[C@@H]1NC(=O)[C@H]2CCCN2C(=O)[C@@H]2CCCN2C(=O)[C@H](C)N(C)C(=O)[C@@H](C(C)C)NC(=O)[C@H](Cc2ccccc2)NC(=O)[C@H]2CCCN2C(=O)[C@@H]2CCCN2C(=O)[C@@H](CC(C)C)NC1=O [Design D9.20, DLEU PRO DPRO PHE DVAL *ALA PRO DPRO LEU] (cyclo(F[dV][NMeA]P[dP]L[dL]P[dP])) | BQL | BQL | BQL
11 | CCCC[C@@H]1NC(=O)[C@H](C(C)C)NC(=O)[C@H]2CCCN2C(=O)[C@@H]2CCCN2C(=O)[C@H](C)NC(=O)[C@@H](C)N(C)C(=O)[C@@H](CC(C)C)N(C)C(=O)[C@@H](C(C)C)NC(=O)[C@@H]2CCCN2C1=O [Design D9.21, ALA PRO DPRO VAL MET PRO DVAL *DLEU *DALA] (cyclo(AP[dP]V[Nle]P[dV][dNMeL][dNMeA])) | 2.94E-07 | 2.78E-07 | 3.05E-07
